Experimental data reported in paper PMC9865139 (Viruses, 2022).
Where two headings read alike, the source gives them in different places.

What was measured:
[1] = tested on: mousepox virus—ectromelia (strain K-1), ECTV; assay: microbe, parasite or virus in culture; settings: Vero, read-out: IC50 ECTV
[2] = in vivo; cited from earlier work
[3] = tested on: vaccinia virus (strain Copenhagen); assay: microbe, parasite or virus in culture; format: cell-based
[4] = tested on: Vero cell culture; settings: African green monkey
[5] = in vivo; cited from earlier work; remark: listed apart in the source
[6] = tested on: cowpox virus (strain Grishak), CPXV
[7] = tested on: vaccinia virus; settings: cited from earlier work
[8] = tested on: VARV; settings: monkey, in vivo; cited from earlier work
[9] = tested on: cowpox virus (strain Grishak), CPXV; assay: microbe, parasite or virus in culture; settings: Vero, read-out: IC50 CPXV
[10] = tested on: mousepox virus—ectromelia (strain K-1), ECTV
[11] = tested on: ectromelia virus; settings: mouse, in vivo; cited from earlier work
[12] = tested on: orthopoxviruses; settings: cited from earlier work
[13] = tested on: cowpox virus; settings: cited from earlier work
[14] = Orthopoxvirus vaccinia, Vero, read-out: IC50, 50% virus-inhibiting concentration
[15] = Orthopoxvirus vaccinia, Vero, read-out: pIC50 (converted)

Structure (SMILES)	SI, selectivity index (TC50/IC50) [3]	IC50 [3, 14] [nM]	TC50, 50% cytotoxic concentration [4] [nM]	IC50 [3, 15] [nM]	further results
Nc1ccn(C[C@@H](CO)OCP(=O)(O)O)c(=O)n1 [cidofovir, Cidofovir, reference compound]	26	7630 ± 3150	201330 ± 60100	–	IC50 [1]: 6460 ± 3100 nM; nephrotoxicity [2]: significant; oral bioavailability [5]: Low; SI CPXV (TC50/IC50) [6]: 9; selectivity index (SI), vaccinia virus [7]: 12; efficacy when used after the onset of smallpox lesions [8]: ineffective; IC50 [9]: 23500 ± 2230 nM; SI ECTV (TC50/IC50) [10]: 31
O=C(NC12CC3CC(CC(C3)C1)C2)c1ccc(Br)cc1 [15a]	3192	130 ± 80	415000 ± 95000	129	IC50 [1]: 150 ± 80 nM; SI CPXV (TC50/IC50) [6]: 1038; IC50 [9]: 400 ± 240 nM; SI ECTV (TC50/IC50) [10]: 2767
Brc1ccc(NC2C3CC4CC(C3)CC2C4)cc1 (stereo not shown) [bromantane, reference compound]	2	38800	–	87100	IC50 ([3]; read-out: IC50, 50% virus-inhibiting concentration): 38900 ± 490 nM
O=C(NC1C2CC3CC(C2)CC1C3)c1cccc([N+](=O)[O-])c1 (stereo not shown) [17b, N-(adamantan-2-yl)-3-nitrobenzamide]	10	990 ± 190	9500 ± 870	1000	–
O=C(NC1C2CC3CC(C2)CC1C3)c1ccccc1[N+](=O)[O-] (stereo not shown) [16b, N-(adamantan-2-yl)-2-nitrobenzamide]	–	–	>100000	–	–
CC(=O)N(OCCN(C)C)C12CC3CC(CC(C3)C1)C2 [compound 3]	–	–	–	–	vaccinia virus inhibitory effects [7]: pronounced
O=C(NC1C2CC3CC(C2)CC1C3)c1ccc([N+](=O)[O-])cc1 (stereo not shown) [18b, N-(adamantan-2-yl)-4-nitrobenzamide]	12,300	40 ± 10	492000 ± 31000	39.8	IC50 [1]: 450 ± 220 nM; SI CPXV (TC50/IC50) [6]: 447; IC50 [9]: 1100 ± 220 nM; SI ECTV (TC50/IC50) [10]: 1093
CCCCCCCCCCCCCCCCOCCCOP(=O)(O)CO[C@H](CO)Cn1ccc(N)nc1=O [CMX001, Brincidofovir]	–	–	–	–	protection against lethal infection with ectromelia virus [11]: does not provide a sufficient level of protection
O=C(NC12CC3CC(CC(C3)C1)C2)c1ccc(F)cc1 [13a]	847	410 ± 100	347310 ± 38980	407	IC50 [1]: 1390 ± 290 nM; SI CPXV (TC50/IC50) [6]: 125; IC50 [9]: 2780 ± 420 nM; SI ECTV (TC50/IC50) [10]: 250
O=C(NC12CC3CC(CC(C3)C1)C2)c1ccccc1 [12a]	23	4700 ± 370	105670 ± 19140	4680	–
O=C(NC1C2CC3CC(C2)CC1C3)c1ccc(F)cc1 (stereo not shown) [13b]	49	2140 ± 130	104000 ± 8720	2140	–
O=C(NC12CC3CC(CC(C3)C1)C2)c1ccc(Cl)cc1 [14a]	2662	130 ± 80	346000 ± 66000	135	IC50 [1]: 370 ± 330 nM; SI CPXV (TC50/IC50) [6]: 653; IC50 [9]: 530 ± 370 nM; SI ECTV (TC50/IC50) [10]: 935
CC1(C)C2CCC1(C)C(NC(=O)c1ccc([N+](=O)[O-])cc1)C2 (stereo not shown) [compound 11]	–	–	–	–	selectivity index [12]: 31,500
CN(C)CCOCC(=O)NC12CC3CC(CC(C3)C1)C2 [compound 4, tromantadine]	–	–	–	–	vaccinia virus inhibitory effects [7]: pronounced
O=C(NC1C2CC3CC(C2)CC1C3)c1ccccc1 (stereo not shown) [12b]	15	6730 ± 170	101330 ± 6110	6760	–
CC1(C)[C@H]2CC=C(CNC(=O)C34CC5CC(CC(C5)C3)C4)[C@@H]1C2 [compound 7]	–	–	–	–	selectivity index (SI), cowpox virus [13]: 406; selectivity index (SI), vaccinia virus [7]: 1123
O=C(NN1C(=O)C2C3C=CC(C4CC34)C2C1=O)c1ccc(F)cc1 (stereo not shown) [compound 19]	–	–	–	–	IC50 ([7]; read-out: IC50 against vaccinia virus): < 50 nM
O=C(NC12CC3CC(CC(C3)C1)C2)c1ccc(C(F)(F)F)cc1 [compound 10]	–	–	–	–	selectivity index [12]: 2325
O=C(NC1C2CC3CC(C2)CC1C3)c1ccc(Cl)cc1 (stereo not shown) [14b]	578	180 ± 40	104000 ± 8720	182	–
O=C(NC12CC3CC(CC(C3)C1)C2)c1ccc([N+](=O)[O-])cc1 [18a]	18,214	30 ± 10	546430 ± 23980	30.2	IC50 [1]: 90 ± 17 nM; SI CPXV (TC50/IC50) [6]: 3036; IC50 [9]: 180 ± 20 nM; SI ECTV (TC50/IC50) [10]: 6071
O=C(NC1C2CC3CC(C2)CC1C3)c1ccc(Br)cc1 (stereo not shown) [15b]	589	220 ± 70	–	219	IC50 ([7]; read-out: IC50): 3060 nM
O=C(NC12CC3CC(CC(C3)C1)C2)c1ccccc1[N+](=O)[O-] [16a, N-(adamantan-1-yl)-2-nitrobenzamide]	–	–	>100000	–	–
O=C(N/N=C1/C(=O)Nc2ccccc21)NC1C2CC3CC(C2)CC1C3 (stereo not shown) [compound 1]	–	–	–	–	reduction in vaccinia virus reproduction [7]: 42%
O=C(CNC1CCCCC1)NC12CC3CC(CC(C3)C1)C2 [compound 2]	–	–	–	–	vaccinia virus inhibitory effects [7]: pronounced
O=C(NC12CC3CC(CC(C3)C1)C2)c1cccc([N+](=O)[O-])c1 [17a, N-(adamantan-1-yl)-3-nitrobenzamide]	8	950 ± 30	7750 ± 750	955	–
O=C1C2C3C=CC(C4CC34)C2C(=O)N1NC(=O)C12CC3CC(CC(C3)C1)C2 (stereo not shown) [compound 6]	–	–	–	–	effective concentration against cowpox virus [13]: below 0.05 μM; effective concentration against vaccinia virus [7]: below 0.05 μM
